Results published in US20080234173A1, “PRESERVATIVE COMPOSITIONS” (TAKASAGO INTERNATIONAL CORPORATION, priority 2007, published 2008).
“Also recorded” adds a separate entry of the source.

System: Pseudomonas aeruginosa ATCC 15442
Test: Anti-Bacterial Test Method: log reduction of bacterial colonies after 3 days exposure in water
Format: cell-based
Description: Materials were dissolved in ethanol (or deionized water in the case of water soluble preservatives) to a concentration of 100 mg/ml. 30 μl of this solution added to 3 ml deionized water gave a final concentration of 0.1%. (If necessary, solutions are sonicated for 15 minutes and allowed to equilibrate back to ambient temperature.) Bacterial cultures were added to this solution, mixed on a vortex mixer and a dock started. After 3 days, an aliquot is sampled and added to a D/E (Dey/Engley) neutralization broth (marketed by Becton and Dickinson Cγ) and plated onto solid media. Bacterial colonies are counted after overnight incubation. The selected indicator microorganism was Pseudomonas aeruginosa ATCC 15442.
All results are quoted as the reduction in activity expressed as a logarithm to the base 10 measured after 3 days incubation and compared with the inocculum unless otherwise noted.
All percentages are quoted as weight per unit volume (e.g. g/ml) unless indicated otherwise.

OCc1ccccc1 [Benzyl alcohol]
Log Reduction after 3 days (0.025% Benzyl alcohol alone): 0.2 log

Cl/C=C\C[N+]12CN3CN(CN(C3)C1)C2.[Cl-] [Dowicil 200, cis-1-3-chloroallyl-3,5,7-triaza-1-azoniaadamantane chloride]
log reduction, compared with the ethanol solvent control (0.05% Dowicil 200 alone): 1.3 log | log reduction after 3 days vs Inocculum (0.05% Dowicil (line of Test Example 14 without fragrance)): 0.7 log

CCOC(=O)c1ccccc1C(=O)OCC [diethyl phthalate]
effect of addition of diethyl phthalate on antibacterial / preservative efficacy (0.1% or 0.2% diethyl phthalate added to fragrance ingredient + preservative mixture): detrimental to antibacterial efficacy; also recorded: detrimental to preservative efficacy

OCCOc1ccccc1 [phenoxyethanol, 2-Phenoxyethanol]
log reduction, compared with the ethanol solvent control, after 3 days (0.1% phenoxyethanol alone): 0.4 log
